Data from article PMC6753678, “Fueling Open Innovation for Malaria Transmission-Blocking Drugs: Hundreds of Molecules Targeting Early Parasite Mosquito Stages” (Frontiers in Microbiology, 2019).
Read-outs that look alike come from different tables or passages of the source.

Key:
[1] = tested on: 3D7-strain P. falciparum asexual parasites; assay: P. falciparum asexual growth inhibition assay (Pf GIA); format: cell-based, Plasmodium falciparum; settings: dose response confirmation; read-out: Pf asexual growth inhibition assays IC50
Summary of the method: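 Read-out was lactate dehydrogenase activity measured by absorbance at 650 nm after freezing and thawing, against 50 μM chloroquine and DMSO controls. Before that, asexual 3D7 cultures (0.25% parasitemia, 2% hematocrit) had 72 h dose-response compound exposure at 37°C in 5% CO2/5% O2/90% N2; three independent replicates averaged.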

HepG2 cells = assay: HepG2 cytotoxicity assay; settings: for Pb ODA (this manuscript) HepG2 cytoxicity: HepG2 cytotoxicity listed with the Pb ODA data set (this manuscript); for IC50: read-out: HepG2 cytotoxicity assay IC50, dose response confirmation; for Unified cytotox: unified HepG2 value across the three screens
Summary of the method: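 Here viability after a 48 h compound incubation (37°C, humidified 5% CO2) is measured by fluorescence and expressed as percent inhibition, with doxorubicin at 50 μM and DMSO as the bounding controls.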

[2] = tested on: P. berghei ookinete development; settings: for % inhibition, Replicate A / % inhibition, Replicate B: primary screen at 1 μM
[3] = read-out: Pb ODA (this manuscript) IC50, P. berghei ookinete development assay, this manuscript
[4] = read-out: Pb Ookinete development assay IC50, dose response confirmation
[5] = read-out: Pb ODA IC50, this manuscript

Cc1cccc2nc(-c3ccc(-c4ccc(CN5CCOCC5)cc4)cc3)[nH]c12.O=C(O)C(F)(F)F [TCMDC-133825]
IC50 [1]: 2230 nM | Pb ODA (this manuscript) HepG2 cytoxicity (HepG2 cells): 27.54 µM | IC50 (HepG2 cells): 27500 nM | Is compound selective in assay? Pb ODA active? [2]: 1 (key: 1: YES; 0: NO) | % inhibition, Replicate A [2]: 75.48% | % inhibition, Replicate B [2]: 125.42% | IC50 [2, 3]: 630 nM | IC50 [2, 4]: 635 nM

Cc1cccc2nc(-c3ccc(-c4ccc(CN5CCCC(O)C5)cc4)cc3)[nH]c12.O=C(O)C(F)(F)F (stereo not shown) [TCMDC-133826]
IC50 [1]: 1480 nM | Pb ODA (this manuscript) HepG2 cytoxicity (HepG2 cells): 12.88 µM | IC50 (HepG2 cells): 12900 nM | Is compound selective in assay? Pb ODA active? [2]: 0 (key: 1: YES; 0: NO) | % inhibition, Replicate A [2]: 58.08% | % inhibition, Replicate B [2]: 28.26% | IC50 [2, 4]: 9270 nM

CC1CN(Cc2ccc(-c3ccc(-c4nc5ccccc5[nH]4)cc3)cc2)CC(C)O1.O=C(O)C(F)(F)F (stereo not shown) [TCMDC-133828]
IC50 [1]: 1140 nM | Pb ODA (this manuscript) HepG2 cytoxicity (HepG2 cells): 30.20 µM | IC50 (HepG2 cells): 30200 nM | Is compound selective in assay? Pb ODA active? [2]: 1 (key: 1: YES; 0: NO) | % inhibition, Replicate A [2]: 97.54% | % inhibition, Replicate B [2]: 72.23% | IC50 [2, 3]: 870 nM | IC50 [2, 4]: 868 nM

CC1CN(Cc2ccc(-c3ccc(-c4nc5cc(F)ccc5[nH]4)cc3)cc2)CC(C)O1.O=C(O)C(F)(F)F (stereo not shown) [TCMDC-133831]
IC50 [1]: 1220 nM | Pb ODA (this manuscript) HepG2 cytoxicity (HepG2 cells): 24.55 µM | IC50 (HepG2 cells): 24600 nM | Is compound selective in assay? Pb ODA active? [2]: 1 (key: 1: YES; 0: NO) | % inhibition, Replicate A [2]: 81.24% | % inhibition, Replicate B [2]: 52.13% | IC50 [2, 4]: 1180 nM

N#Cc1ccc(CN2CCC(Oc3ccc(NC(=O)c4cccs4)cc3Cl)CC2)cc1.O=C(O)C(F)(F)F [TCMDC-133955]
IC50 [1]: 600 nM | Pb ODA (this manuscript) HepG2 cytoxicity (HepG2 cells): 36.31 µM | IC50 (HepG2 cells): 36300 nM | Is compound selective in assay? Pb ODA active? [2]: 0 (key: 1: YES; 0: NO) | % inhibition, Replicate A [2]: 56.20% | % inhibition, Replicate B [2]: 46.08% | IC50 [2, 3]: 4360 nM | IC50 [2, 4]: 4360 nM

CC(C)CCN1CCC(Oc2ccc(NC(=O)c3cccs3)cc2Cl)CC1.O=C(O)C(F)(F)F [TCMDC-133974]
IC50 [1]: 660 nM | Pb ODA (this manuscript) HepG2 cytoxicity (HepG2 cells): 21.38 µM | IC50 (HepG2 cells): 21400 nM | Is compound selective in assay? Pb ODA active? [2]: 1 (key: 1: YES; 0: NO) | % inhibition, Replicate A [2]: 38.26% | % inhibition, Replicate B [2]: 57.89% | IC50 [2, 3]: 1450 nM | IC50 [2, 4]: 1450 nM

CNC(=O)c1cc(F)c(F)cc1Nc1nc(Nc2cccc(CS(C)(=O)=O)c2)ncc1Cl.O=CO [TCMDC-134060]
IC50 [1]: 1570 nM | Pb ODA (this manuscript) HepG2 cytoxicity (HepG2 cells): 100.00 µM | IC50 (HepG2 cells): 100000 nM | Is compound selective in assay? Pb ODA active? [2]: 1 (key: 1: YES; 0: NO) | % inhibition, Replicate A [2]: 53.04% | % inhibition, Replicate B [2]: 41.11% | IC50 [2, 3]: 2150 nM | IC50 [2, 4]: 2150 nM

CN1CCN(c2ccc(Nc3ncc(C#N)c(Nc4ccccc4C(N)=O)n3)cc2)CC1.Cl [TCMDC-134116]
IC50 [1]: 28 nM | Pb ODA (this manuscript) HepG2 cytoxicity (HepG2 cells): 2.43 µM | IC50 (HepG2 cells): 2430 nM | Is compound selective in assay? Pb ODA active? [2]: 1 (key: 1: YES; 0: NO) | % inhibition, Replicate A [2]: 134.36% | % inhibition, Replicate B [2]: 120.59% | IC50 [2, 3]: 31.6 nM | IC50 [2, 4]: 32 nM

COc1ccc(Nc2ncc(C#N)c(Nc3ccccc3C(N)=O)n2)cc1N1CCN(C)CC1.Cl [TCMDC-134117]
IC50 [1]: 63 nM | Pb ODA (this manuscript) HepG2 cytoxicity (HepG2 cells): 8.32 µM | IC50 (HepG2 cells): 8320 nM | Is compound selective in assay? Pb ODA active? [2]: 1 (key: 1: YES; 0: NO) | % inhibition, Replicate A [2]: 92.85% | % inhibition, Replicate B [2]: 98.42% | IC50 [2, 3]: 25.5 nM | IC50 [2, 4]: 26 nM

CNC(=O)c1ccccc1Nc1nc(Nc2ccc(N3CCOCC3)cc2)ncc1Cl.Cl [TCMDC-134144]
IC50 [1]: 1990 nM | Pb ODA (this manuscript) HepG2 cytoxicity (HepG2 cells): 3.63 µM | IC50 (HepG2 cells): 3630 nM | Is compound selective in assay? Pb ODA active? [2]: 0 (key: 1: YES; 0: NO) | % inhibition, Replicate A [2]: 67.63% | % inhibition, Replicate B [2]: 105.55% | IC50 [2, 3]: 390 nM | IC50 [2, 4]: 387 nM

COc1ccc(Nc2ncc(OC)c(Nc3ccccc3C(N)=O)n2)cc1N1CCN(C)CC1.O=CO [TCMDC-134149]
IC50 [1]: 846 nM | Pb ODA (this manuscript) HepG2 cytoxicity (HepG2 cells): 13.49 µM | IC50 (HepG2 cells): 13500 nM | Is compound selective in assay? Pb ODA active? [2]: 1 (key: 1: YES; 0: NO) | % inhibition, Replicate A [2]: 85.24% | % inhibition, Replicate B [2]: 71.46% | IC50 [2, 4]: 270 nM

NCC(NC(=O)c1ccc(-c2c[nH]c3ncccc23)s1)c1ccccc1.O=CO (stereo not shown) [TCMDC-134154]
IC50 [1]: 558 nM | IC50 (HepG2 cells): 16200 nM | Unified cytotox (HepG2 cells): 16.22 µM | Is compound selective in assay? Pb ODA active? ([2]; 1: YES, 0: NO): 1 (1: YES) | % inhibition, Replicate A [2]: 101.79% | % inhibition, Replicate B [2]: 81.42% | IC50 [2, 5]: 960 nM | IC50 [2, 4]: 964 nM

COc1ccc(Nc2ncc(Cl)c(Nc3cccnc3C(N)=O)n2)cc1N1CCN(C)CC1.Cl [TCMDC-134163]
IC50 [1]: 169 nM | Pb ODA (this manuscript) HepG2 cytoxicity (HepG2 cells): 11.22 µM | IC50 (HepG2 cells): 11200 nM | Is compound selective in assay? Pb ODA active? [2]: 1 (key: 1: YES; 0: NO) | % inhibition, Replicate A [2]: 91.07% | % inhibition, Replicate B [2]: 92.91% | IC50 [2, 4]: 380 nM

CN1CCN(c2ccc(Nc3ncc(Cl)c(Nc4cccnc4C(N)=O)n3)cc2)CC1.Cl [TCMDC-134164]
IC50 [1]: 84 nM | Pb ODA (this manuscript) HepG2 cytoxicity (HepG2 cells): 4.62 µM | IC50 (HepG2 cells): 4620 nM | Is compound selective in assay? Pb ODA active? [2]: 1 (key: 1: YES; 0: NO) | % inhibition, Replicate A [2]: 96.98% | % inhibition, Replicate B [2]: 90.60% | IC50 [2, 3]: 230 nM | IC50 [2, 4]: 226 nM

CS(=O)(=O)Cc1ccc(Nc2ncc(Cl)c(Nc3cccnc3C(N)=O)n2)cc1.Cl [TCMDC-134165]
IC50 [1]: 969 nM | Pb ODA (this manuscript) HepG2 cytoxicity (HepG2 cells): 100.00 µM | IC50 (HepG2 cells): 100000 nM | Is compound selective in assay? Pb ODA active? [2]: 1 (key: 1: YES; 0: NO) | % inhibition, Replicate A [2]: 41.15% | % inhibition, Replicate B [2]: 108.98% | IC50 [2, 3]: 700 nM | IC50 [2, 4]: 699 nM

CS(=O)(=O)Cc1cccc(Nc2ncc(Cl)c(Nc3cccnc3C(N)=O)n2)c1.Cl [TCMDC-134166]
IC50 [1]: 273 nM | Pb ODA (this manuscript) HepG2 cytoxicity (HepG2 cells): 4.79 µM | IC50 (HepG2 cells): 4790 nM | Is compound selective in assay? Pb ODA active? [2]: 0 (key: 1: YES; 0: NO) | % inhibition, Replicate A [2]: 102.49% | % inhibition, Replicate B [2]: 90.53% | IC50 [2, 3]: 1210 nM | IC50 [2, 4]: 1200 nM

NC(=O)c1ccccc1Nc1nc(Nc2cc[nH]n2)ncc1Cl [TCMDC-134169]
IC50 [1]: 2310 nM | Pb ODA (this manuscript) HepG2 cytoxicity (HepG2 cells): 13.18 µM | IC50 (HepG2 cells): 13200 nM | Is compound selective in assay? Pb ODA active? [2]: 1 (key: 1: YES; 0: NO) | % inhibition, Replicate A [2]: 78.38% | % inhibition, Replicate B [2]: 61.96% | IC50 [2, 3]: 510 nM | IC50 [2, 4]: 513 nM

COc1cc(NC2=NS(=O)(=O)c3cc(Cl)ccc3N2C)cc(OC)c1OC.O=C(O)C(F)(F)F [TCMDC-134208]
IC50 [1]: 146 nM | IC50 (HepG2 cells): 100000 nM | Unified cytotox (HepG2 cells): 100.00 µM | Is compound selective in assay? Pb ODA active? ([2]; 1: YES, 0: NO): 1 (1: YES) | % inhibition, Replicate A [2]: 117.05% | % inhibition, Replicate B [2]: 98.94% | IC50 [2, 5]: 1350 nM | IC50 [2, 4]: 1350 nM

CC(C#N)Cc1ccc(-c2cnc(N)c3cc(-c4ccnc(N)n4)ccc23)cc1 (stereo not shown) [TCMDC-134547]
IC50 [1]: 1370 nM | IC50 (HepG2 cells): 5750 nM | Unified cytotox (HepG2 cells): 5.75 µM | Is compound selective in assay? Pb ODA active? ([2]; 1: YES, 0: NO): 0 (0: NO) | % inhibition, Replicate A [2]: 69.67% | % inhibition, Replicate B [2]: 52.16% | IC50 [2, 5]: 850 nM | IC50 [2, 4]: 849 nM
